Source: publication PMC11044139, “Comparative Study of Toxic Terpenoidal Aldehydes and Lactone Derivatives from the European Polypore Bondarzewia mesenterica” (ACS Omega, 2024)
≈ marks a conversion by molar mass, not a printed value. Where “and” joins values, the source holds several entries; their conditions need not be identical. Identical values can stand only once. Like-named read-outs stand apart in the source and are kept apart here.

What was measured:
[1] = tested on: Bacillus subtilis (DSM 10); test: Antimicrobial assay (MIC), B. subtilis; assay type: cell-based
Protocol: (§1) The antimicrobial effects of the isolated compounds were determined using our established protocols.[19] Generally, an array of clinically relevant microorganisms consisting of bacteria, namely, S. aureus (DSM 346), A. baumanii (DSM 30008), B. subtilis (DSM 10), E. coli (DSM 1116), P. aeruginosa (PA14), C. violaceum (DSM 30191), and M. smegmatis (ATCC 700084), and fungi including M. hiemalis (DSM 2656), C. albicans (DSM 1665), R. glutinis (DSM 10134), S. pombe (DSM 70572), and P. anomala (DSM 6766), were used. […] The minimum inhibitory concentrations (MIC) were recorded after an overnight incubation as the lowest concentration under which no microbial growth was visualized. The microorganisms were obtained from the German Collection of Microorganisms and Cell Cultures (DSMZ, Braunschweig, Germany).

[2] = tested on: Chromobacterium violaceum (DSM 30191); test: Antimicrobial assay (MIC), C. violaceum; assay type: cell-based; conditions: overnight incubation, n.i. = no inhibition up to 67 μg/mL
Protocol: as §1

[3] = tested on: Schizosaccharomyces pombe (DSM 70572); test: Antimicrobial assay (MIC), S. pombe; assay type: cell-based
Protocol: as §1

[4] = parameters: method as in doi:10.1021/np50038a013; conditions: previous report; cited from earlier work
[5] = tested on: Rhodotorula glutinis (DSM 10134); test: Antimicrobial assay (MIC), R. glutinis; assay type: cell-based
Protocol: as §1

[6] = tested on: human lung carcinoma (A549); test: Cytotoxicity (MTT) assay, A549; assay type: cell-based
From the text: (§2) MTT (3-(4,5-dimethylthiayol-2-yl)-2,5-diphenyltetrazolium bromide)-based assay was used to determine in vitro cytotoxicity as previously reported.[24] The tested mammalian cell lines included mouse fibroblasts (L929), endocervical adenocarcinoma (KB3.1), human lung carcinoma (A549), breast adenocarcinoma (MCF-7), prostate carcinoma (PC-3), and epidermoid carcinoma cells (A431). Epothilone B was used as a positive control.

[7] = tested on: human breast adenocarcinoma (MCF-7); test: Cytotoxicity (MTT) assay, MCF-7; assay type: cell-based
From the text: as §2

[8] = tested on: Mucor hiemalis (DSM 2656); test: Antimicrobial assay (MIC), M. hiemalis; assay type: cell-based
Protocol: as §1

[9] = tested on: all tested cell lines; test: Cytotoxicity (MTT) assay, all tested cell lines; assay type: cell-based; conditions: for IC50: read-out: IC50 values, range against all tested cell lines
From the text: as §2

[10] = tested on: Acinetobacter baumanii (DSM 30008); test: Antimicrobial assay (MIC), A. baumanii; assay type: cell-based; conditions: overnight incubation, n.i. = no inhibition up to 67 μg/mL
Protocol: as §1

[11] = tested on: Staphylococcus aureus (DSM 346); test: Antimicrobial assay (MIC), S. aureus; assay type: cell-based
Protocol: as §1

[12] = tested on: Pseudomonas aeruginosa (PA14); test: Antimicrobial assay (MIC), P. aeruginosa; assay type: cell-based; conditions: overnight incubation, n.i. = no inhibition up to 67 μg/mL
Protocol: as §1

[13] = tested on: Mycobacterium smegmatis (ATCC 700084); test: Antimicrobial assay (MIC), M. smegmatis; assay type: cell-based
Protocol: as §1

[14] = tested on: human prostate carcinoma (PC-3); test: Cytotoxicity (MTT) assay, PC-3; assay type: cell-based
From the text: as §2

[15] = tested on: Pichia anomala (DSM 6766); test: Antimicrobial assay (MIC), P. anomala; assay type: cell-based
Protocol: as §1

[16] = tested on: human endocervical adenocarcinoma (KB3.1); test: Cytotoxicity (MTT) assay, KB3.1; assay type: cell-based; conditions: for IC50: Homo sapiens, KB 3-1, n.a. = no activity
From the text: as §2, with “(A431).” for “(A431). Epothilone B was used as a positive control.”

[17] = tested on: mouse fibroblast (L929); test: Cytotoxicity (MTT) assay, L929; assay type: cell-based; conditions: for IC50: Mus musculus, n.a. = no activity
From the text: as §2, with “(A431).” for “(A431). Epothilone B was used as a positive control.”

[18] = tested on: Candida albicans (DSM 1665); test: Antimicrobial assay (MIC), C. albicans; assay type: cell-based
Protocol: as §1

[19] = tested on: human epidermoid carcinoma (A431); test: Cytotoxicity (MTT) assay, A431; assay type: cell-based
From the text: as §2

[20] = tested on: human ovarian cancer (SKOV-3); test: Cytotoxicity (MTT) assay, SKOV-3; assay type: cell-based
[21] = tested on: Escherichia coli (DSM 1116); test: Antimicrobial assay (MIC), E. coli; assay type: cell-based; conditions: overnight incubation, n.i. = no inhibition up to 67 μg/mL
Protocol: as §1

[22] = tested on: P. anomala, M. hiemalis, and Rhodotorula glutinis; test: Antimicrobial assay (MIC), three fungi summarised in text; assay type: cell-based; conditions: range over three fungi
Protocol: as §1

[23] = SK-OV-3, SKOV-3, read-out: IC50
[24] = overnight incubation, n.i. = no inhibition up to 67 μg/mL
[25] = DSM346, overnight incubation, n.i. = no inhibition up to 67 μg/mL, read-out: MIC
[26] = Mycobacterium smegmatis, overnight incubation, n.i. = no inhibition up to 67 μg/mL
[27] = Pichia anomala, overnight incubation, n.i. = no inhibition up to 67 μg/mL
[28] = DSM10134, overnight incubation, n.i. = no inhibition up to 67 μg/mL, read-out: MIC
[29] = DSM2656, overnight incubation, n.i. = no inhibition up to 67 μg/mL, read-out: MIC

| SMILES | MIC [2] | IC50 ([6]; A549, read-out: IC50) [µM] | IC50 ([7]; MCF7, MCF-7, read-out: IC50) [nM] | MIC [10] | MIC [12] | IC50 ([14]; PC-3, read-out: IC50) [µM] | IC50 [16] [µM] | IC50 [17] [µM] | IC50 ([19]; A-431, A431, read-out: IC50) [µM] | IC50 [20, 23] [µM] | MIC [21] | MIC [1, 24] | MIC [3, 24] | MIC [5, 24] | MIC [8, 24] | MIC [11, 25] [µg/mL] | MIC [13, 26] | MIC [15, 27] | cytotoxicity (in words) [16] | MIC [18, 24] | also measured |
| --- | --- | --- | --- | --- | --- | --- | --- | --- | --- | --- | --- | --- | --- | --- | --- | --- | --- | --- | --- | --- | --- |
| CC1(C)CC2C=C(C=O)[C@]3(C=O)C[C@]3(C)C2C1 (single isomer, unassigned; (+)) [Compound 8, (+)-isovelleral] | n.i. | 30.2 | 2800 | n.i. | n.i. | 3.9 | 10.3 | 10.3 | 3.4 | 5.2 | n.i. |  |  |  |  |  |  |  |  |  | MIC ([1]; DSM10): 33.3 µg/mL (≈ 143 µM); MIC ([3]; DSM70572): 33.3 µg/mL (≈ 143 µM); mutagenicity [4]: revealed mutagenicity; MIC ([5]; DSM10134): 16.6 µg/mL (≈ 71.5 µM); MIC ([8]; DSM2656): 8.3 µg/mL (≈ 35.7 µM); IC50 [9]: 2.8 to 30.2 µM; MIC ([11]; DSM346): 33.3 µg/mL (≈ 143 µM); MIC ([13]; Mycolicibacterium smegmatis, ATCC700084): 33.3 µg/mL (≈ 143 µM); MIC ([15]; Hansenula anomala, DSM6766): 16.6 µg/mL (≈ 71.5 µM); MIC ([18]; DSM1665): 33.3 µg/mL (≈ 143 µM) |
| CC(C)=CCC(/C=C(\CO)CCO)C(=O)O (stereo not shown) [Compound 3, sterepinic acid A] | n.i. |  |  | n.i. | n.i. |  |  |  |  |  | n.i. | n.i. | n.i. | n.i. | n.i. | 66.6 (≈ 292 µM) | n.i. | n.i. | non-cytotoxic | n.i. | cytotoxicity (in words) [17]: non-cytotoxic |
| CC(C)(O)[C@H]1C[C@H](CC2=CC(=O)OC2)C(=O)O1 [Compound 5, vibralactones Z2] | n.i. |  |  | n.i. | n.i. |  |  |  |  |  | n.i. | n.i. | n.i. | n.i. | n.i. | 66.6 (≈ 277 µM) | n.i. | n.i. | non-cytotoxic | n.i. | cytotoxicity (in words) [17]: non-cytotoxic |
| CC(=O)O[C@@H]1CC2C3=C(C(C)C)CC[C@]3(C)CC[C@@]2(C)[C@@H](OC2OC[C@@H](O)[C@H](O)[C@H]2O)C=C1C=O (stereo partly shown) [Compound 7, erinacine P] | n.i. | 14.2 | 3300 | n.i. | n.i. | 4.9 | 5.1 | 13 | 3.5 | 7.7 | n.i. |  | n.i. |  |  | 66.6 (≈ 135 µM) | n.i. | n.i. |  | n.i. | MIC ([1]; DSM10, overnight incubation, n.i. = no inhibition up to 67 μg/mL, read-out: MIC): 33.3 µg/mL (≈ 67.6 µM); MIC [5, 28]: 16.6 µg/mL (≈ 33.7 µM); MIC [8, 29]: 66.6 µg/mL (≈ 135 µM); IC50 ([9]; range over all tested cell lines): 3.3 to 14.2 µM and 3.5 to 14.2 µM |
| CC(C)=CCc1cc(C=O)ccc1O [Compound 9, 4-hydroxy-3(3-methylbut-2-enyl)benzaldehyde] | n.i. |  |  | n.i. | n.i. |  |  |  |  |  | n.i. | n.i. | n.i. |  |  |  | n.i. |  |  | n.i. | MIC values, range against P. anomala, M. hiemalis, and Rhodotorula glutinis [22]: 33.3 to 66.6 µg/mL; MIC [5, 28]: 66.6 µg/mL (≈ 350 µM); MIC [8, 29]: 66.6 µg/mL (≈ 350 µM); cytotoxic effects (in words) ([9]; tested cell lines): no apparent cytotoxic effects; MIC [11, 24]: n.i.; MIC ([15]; Hansenula anomala, DSM6766, Pichia anomala, overnight incubation, n.i. = no inhibition up to 67 μg/mL, read-out: MIC): 33.3 µg/mL (≈ 175 µM) |
| C/C(=C\c1csc(C)n1)[C@@H]1C[C@@H]2O[C@]2(C)CCC[C@H](C)[C@H](O)[C@@H](C)C(=O)C(C)(C)[C@@H](O)CC(=O)O1 [epothilone B, Epothilone B, reference compound] |  |  |  |  |  |  |  |  |  |  |  |  |  |  |  |  |  |  |  |  | IC50 ([6]; A549, read-out: IC50, positive control epothilone B): 5e-05 µM; IC50 ([7]; MCF7, read-out: IC50, positive control epothilone B): 0.07 nM; IC50 ([14]; PC-3, read-out: IC50, positive control epothilone B): 9e-05 µM; IC50 ([19]; A-431, read-out: IC50, positive control epothilone B): 6e-05 µM; IC50 ([20]; SK-OV-3, read-out: IC50, positive control epothilone B): 9e-05 µM |
